Test results as given in the NIST ThermoML archive (doi:10.1021/acs.jced.7b00704).
± gives the expanded uncertainty stated by the source.

Legend:
[1] = Liquid, Ebulliometric method (Recirculating still)
[2] = refractive index (Na D-line) (dimensionless); conditions: Liquid, Standard Abbe refractometry
[3] = refractive index (Na D-line) (dimensionless); xn = mol fraction of the nth substance listed; conditions: 293.15 K, 93 kPa, Liquid, Standard Abbe refractometry

CC(=O)OC(C)C [1-methylethyl ethanoate]
vapor or sublimation pressure ([1]; 358.92 K): 93.13 ± 0.96 kPa | refractive index ([2]; 293.15 K, 93 kPa): 1.3774 ± 0.0004 | refractive index ([2]; 298.15 K, 101.33 kPa): 1.3748 ± 0.00042

COC(=O)OC [dimethyl carbonate] + CCCCOC(C)=O
refractive index ([3]; x2 = 0): 1.3688 ± 0.0004

COC(C)=O [methyl ethanoate]
vapor or sublimation pressure ([1]; 327.63 K): 93.13 ± 0.96 kPa | refractive index ([2]; 293.15 K, 93 kPa): 1.3615 ± 0.0004 | refractive index ([2]; 298.15 K, 101.33 kPa): 1.35872 ± 0.00042

CC(=O)OCCC(C)C [3-methylbutyl ethanoate] + COC(=O)OC
refractive index ([3]; x1 = 0.0369): 1.3706 ± 0.0004 | refractive index ([3]; x1 = 0.0721): 1.3724 ± 0.0004 | refractive index ([3]; x1 = 0.2004): 1.378 ± 0.0004 | refractive index ([3]; x1 = 0.2231): 1.3788 ± 0.0005 | refractive index ([3]; x1 = 0.3091): 1.3821 ± 0.0005 | refractive index ([3]; x1 = 0.4027): 1.3854 ± 0.0005 | refractive index ([3]; x1 = 0.4943): 1.3883 ± 0.0005 | refractive index ([3]; x1 = 0.6064): 1.3915 ± 0.0005 | refractive index ([3]; x1 = 0.7185): 1.3945 ± 0.0005 | refractive index ([3]; x1 = 0.8312): 1.3972 ± 0.0005 | refractive index ([3]; x1 = 0.9243): 1.3992 ± 0.0005 | refractive index ([3]; x1 = 1): 1.4007 ± 0.0005

COC(=O)OC [dimethyl carbonate] + CCCOC(C)=O
refractive index ([3]; x2 = 0): 1.3688 ± 0.0004

COC(=O)OC [dimethyl carbonate]
vapor or sublimation pressure ([1]; 360.73 K): 93.13 ± 0.96 kPa | refractive index ([2]; 293.15 K, 93 kPa): 1.3688 ± 0.0004 | refractive index ([2]; 298.15 K, 101.33 kPa): 1.3664 ± 0.00042

CCOC(C)=O [ethyl acetate] + COC(=O)OC
refractive index ([3]; x1 = 1): 1.3724 ± 0.0004

CC(=O)OC(C)C [1-methylethyl ethanoate] + COC(=O)OC
refractive index ([3]; x1 = 0.0423): 1.3693 ± 0.0004 | refractive index ([3]; x1 = 0.0899): 1.3699 ± 0.0004 | refractive index ([3]; x1 = 0.183): 1.371 ± 0.0004 | refractive index ([3]; x1 = 0.2918): 1.3721 ± 0.0004 | refractive index ([3]; x1 = 0.4235): 1.3733 ± 0.0004 | refractive index ([3]; x1 = 0.5026): 1.374 ± 0.0004 | refractive index ([3]; x1 = 0.5726): 1.3746 ± 0.0004 | refractive index ([3]; x1 = 0.6814): 1.3754 ± 0.0004 | refractive index ([3]; x1 = 0.7285): 1.3758 ± 0.0004 | refractive index ([3]; x1 = 0.7616): 1.3759 ± 0.0004 | refractive index ([3]; x1 = 0.7915): 1.3761 ± 0.0004 | refractive index ([3]; x1 = 0.8849): 1.3767 ± 0.0004 | refractive index ([3]; x1 = 0.9449): 1.3771 ± 0.0004 | refractive index ([3]; x1 = 1): 1.3774 ± 0.0004

CCCOC(C)=O [propyl ethanoate] + COC(=O)OC
refractive index ([3]; x1 = 0.0846): 1.3704 ± 0.0004 | refractive index ([3]; x1 = 0.1341): 1.3714 ± 0.0004 | refractive index ([3]; x1 = 0.1705): 1.372 ± 0.0004 | refractive index ([3]; x1 = 0.223): 1.3731 ± 0.0004 | refractive index ([3]; x1 = 0.2896): 1.3741 ± 0.0005 | refractive index ([3]; x1 = 0.3877): 1.3757 ± 0.0005 | refractive index ([3]; x1 = 0.4374): 1.3765 ± 0.0005 | refractive index ([3]; x1 = 0.4989): 1.3775 ± 0.0005 | refractive index ([3]; x1 = 0.562): 1.3784 ± 0.0005 | refractive index ([3]; x1 = 0.669): 1.38 ± 0.0005 | refractive index ([3]; x1 = 0.7756): 1.3815 ± 0.0005 | refractive index ([3]; x1 = 0.891): 1.383 ± 0.0005 | refractive index ([3]; x1 = 0.9528): 1.3838 ± 0.0005 | refractive index ([3]; x1 = 1): 1.3843 ± 0.0005

COC(=O)OC [dimethyl carbonate] + CC(=O)OC(C)C
refractive index ([3]; x2 = 0): 1.3688 ± 0.0004

COC(C)=O [methyl ethanoate] + COC(=O)OC
refractive index ([3]; x1 = 0.0985): 1.3682 ± 0.0004 | refractive index ([3]; x1 = 0.1427): 1.3679 ± 0.0004 | refractive index ([3]; x1 = 0.2469): 1.3673 ± 0.0004 | refractive index ([3]; x1 = 0.3243): 1.3668 ± 0.0004 | refractive index ([3]; x1 = 0.3794): 1.3665 ± 0.0004 | refractive index ([3]; x1 = 0.445): 1.366 ± 0.0004 | refractive index ([3]; x1 = 0.5283): 1.3654 ± 0.0004 | refractive index ([3]; x1 = 0.6548): 1.3645 ± 0.0004 | refractive index ([3]; x1 = 0.7403): 1.3639 ± 0.0004 | refractive index ([3]; x1 = 0.7976): 1.3634 ± 0.0004 | refractive index ([3]; x1 = 0.8939): 1.3625 ± 0.0004 | refractive index ([3]; x1 = 0.9548): 1.362 ± 0.0004 | refractive index ([3]; x1 = 1): 1.3615 ± 0.0004

COC(=O)OC [dimethyl carbonate] + CC(=O)OCCC(C)C
refractive index ([3]; x2 = 0): 1.3688 ± 0.0004

COC(=O)OC [dimethyl carbonate] + CCOC(C)=O
refractive index ([3]; x2 = 0): 1.3688 ± 0.0004 | refractive index ([3]; x2 = 0.0861): 1.3693 ± 0.0004 | refractive index ([3]; x2 = 0.1154): 1.3694 ± 0.0004 | refractive index ([3]; x2 = 0.2095): 1.3698 ± 0.0004 | refractive index ([3]; x2 = 0.3017): 1.3702 ± 0.0004 | refractive index ([3]; x2 = 0.3685): 1.3704 ± 0.0004 | refractive index ([3]; x2 = 0.3952): 1.3705 ± 0.0004 | refractive index ([3]; x2 = 0.4303): 1.3707 ± 0.0004 | refractive index ([3]; x2 = 0.5094): 1.371 ± 0.0004 | refractive index ([3]; x2 = 0.5642): 1.3712 ± 0.0004 | refractive index ([3]; x2 = 0.6047): 1.3713 ± 0.0004 | refractive index ([3]; x2 = 0.6964): 1.3716 ± 0.0004 | refractive index ([3]; x2 = 0.8026): 1.3719 ± 0.0004 | refractive index ([3]; x2 = 0.8912): 1.3722 ± 0.0004 | refractive index ([3]; x2 = 0.9375): 1.3723 ± 0.0004

COC(=O)OC [dimethyl carbonate] + COC(C)=O
refractive index ([3]; x2 = 0): 1.3688 ± 0.0004

CCCCOC(C)=O [butyl ethanoate] + COC(=O)OC
refractive index ([3]; x1 = 0.0941): 1.3721 ± 0.0004 | refractive index ([3]; x1 = 0.1143): 1.3728 ± 0.0004 | refractive index ([3]; x1 = 0.1628): 1.3743 ± 0.0004 | refractive index ([3]; x1 = 0.2495): 1.377 ± 0.0004 | refractive index ([3]; x1 = 0.3203): 1.379 ± 0.0004 | refractive index ([3]; x1 = 0.4375): 1.3821 ± 0.0004 | refractive index ([3]; x1 = 0.5357): 1.3846 ± 0.0004 | refractive index ([3]; x1 = 0.6438): 1.3871 ± 0.0004 | refractive index ([3]; x1 = 0.7325): 1.389 ± 0.0004 | refractive index ([3]; x1 = 0.7418): 1.3893 ± 0.0004 | refractive index ([3]; x1 = 0.8819): 1.3921 ± 0.0004 | refractive index ([3]; x1 = 0.9073): 1.3925 ± 0.0004 | refractive index ([3]; x1 = 1): 1.3943 ± 0.0004
